One assay deals with L1210. The experiment in a line: Antiproliferative activity against mouse L1210 cells after 72 hrs by phosphatase assay. The format is functional, cell-based. Conditions: L1210, 72 h.
In the next assay the test system is HCT-116. The experiment in a line: Antiproliferative activity against human HCT116 cells after 72 hrs by phosphatase assay. The format is functional, cell-based. The settings on record: HCT-116, 72 h.
Assay [1] can be described thus: Cytotoxicity against human HCT116/VM46 cells assessed as reduction in cell viability after 72 hrs by phosphatase assay. Conditions: HCT-116/VM46, 72 h. Format: cell-based.

These results are taken from ChEMBL document CHEMBL4017512 (J Med Chem, 2017).

pIC50: −log10 of the molar value. Where only a bound is given, the exact number is not on record here.

A word on the pIC50: it is the IC50 on a negative log10 scale, so that one unit is a factor of ten.

For the compound `CC[C@]1(NC(=O)c2ccc(SC)cc2)C[C@H]2CN(CCc3c([nH]c4ccccc34)[C@@](C(=O)OC)(c3cc4c(cc3OC)N(C)[C@H]3[C@@](O)(C(=O)OC)[C@H](OC(C)=O)[C@]5(CC)C=CCN6CC[C@]43[C@@H]65)C2)C1`, the pIC50 is 9.40 with L1210, 9.30 in the assay with HCT-116 and 8.17 in assay [1].

As for `CC[C@]1(NC(=O)c2ccc(OC)cc2)C[C@H]2CN(CCc3c([nH]c4ccccc34)[C@@](C(=O)OC)(c3cc4c(cc3OC)N(C)[C@H]3[C@@](O)(C(=O)OC)[C@H](OC(C)=O)[C@]5(CC)C=CCN6CC[C@]43[C@@H]65)C2)C1`, the results for the pIC50 (in the assay with L1210; in the assay with HCT-116; in assay [1]) were 9.60, 9.52 and 8.12, respectively.

On to `CC[C@]1(NC(=O)c2ccc([N+](=O)[O-])cc2)C[C@H]2CN(CCc3c([nH]c4ccccc34)[C@@](C(=O)OC)(c3cc4c(cc3OC)N(C)[C@H]3[C@@](O)(C(=O)OC)[C@H](OC(C)=O)[C@]5(CC)C=CCN6CC[C@]43[C@@H]65)C2)C1`, for which the results for the pIC50 (in the assay on L1210; with HCT-116; in assay [1]) were 8.21, 8.21 and 7.22, respectively.

In the case of `CC[C@]1(NC(=O)c2ccc3nccnc3c2)C[C@H]2CN(CCc3c([nH]c4ccccc34)[C@@](C(=O)OC)(c3cc4c(cc3OC)N(C)[C@H]3[C@@](O)(C(=O)OC)[C@H](OC(C)=O)[C@]5(CC)C=CCN6CC[C@]43[C@@H]65)C2)C1`, the pIC50 is 9.22 with L1210, 9.22 in the assay with HCT-116 and 8.12 in assay [1].

On to `CC[C@]1(NC(=O)c2ccoc2)C[C@H]2CN(CCc3c([nH]c4ccccc34)[C@@](C(=O)OC)(c3cc4c(cc3OC)N(C)[C@H]3[C@@](O)(C(=O)OC)[C@H](OC(C)=O)[C@]5(CC)C=CCN6CC[C@]43[C@@H]65)C2)C1`, for which the pIC50 was 9.15 in the assay with L1210, 9.22 in the assay with HCT-116 and 8.20 in assay [1].

Consider `CC[C@]1(NC(=O)c2ccco2)C[C@H]2CN(CCc3c([nH]c4ccccc34)[C@@](C(=O)OC)(c3cc4c(cc3OC)N(C)[C@H]3[C@@](O)(C(=O)OC)[C@H](OC(C)=O)[C@]5(CC)C=CCN6CC[C@]43[C@@H]65)C2)C1`, for which the pIC50 with L1210 is 9.15; in the assay with HCT-116, 9.15; in assay [1], 7.92.

Take `CC[C@]1(NC(=O)c2ccc(OC)c(OC)c2)C[C@H]2CN(CCc3c([nH]c4ccc(F)cc34)[C@@](C(=O)OC)(c3cc4c(cc3OC)N(C)[C@H]3[C@@](O)(C(=O)OC)[C@H](OC(C)=O)[C@]5(CC)C=CCN6CC[C@]43[C@@H]65)C2)C1`: the values for the pIC50 (in the assay with L1210; with HCT-116; in assay [1]) were 10.22, 10.10 and 9.05, respectively.

On to `CC[C@]1(NC(=O)c2ccc(S(=O)(=O)F)cc2)C[C@H]2CN(CCc3c([nH]c4ccccc34)[C@@](C(=O)OC)(c3cc4c(cc3OC)N(C)[C@H]3[C@@](O)(C(=O)OC)[C@H](OC(C)=O)[C@]5(CC)C=CCN6CC[C@]43[C@@H]65)C2)C1`, for which the pIC50 with L1210 is 7.70; with HCT-116, 7.52; in assay [1], 6.51.

As for `CC[C@]1(NC(=O)c2cnc3ccccc3n2)C[C@H]2CN(CCc3c([nH]c4ccccc34)[C@@](C(=O)OC)(c3cc4c(cc3OC)N(C)[C@H]3[C@@](O)(C(=O)OC)[C@H](OC(C)=O)[C@]5(CC)C=CCN6CC[C@]43[C@@H]65)C2)C1`, the figures for the pIC50 (in the assay on L1210; in the assay on HCT-116; in assay [1]) were 8.21, 8.23 and 7.22, respectively.

`CC[C@]1(NC(=O)c2ccc(SC(C)C)cc2)C[C@H]2CN(CCc3c([nH]c4ccccc34)[C@@](C(=O)OC)(c3cc4c(cc3OC)N(C)[C@H]3[C@@](O)(C(=O)OC)[C@H](OC(C)=O)[C@]5(CC)C=CCN6CC[C@]43[C@@H]65)C2)C1`: the pIC50 is 8.37 with L1210, 8.34 in the assay with HCT-116 and 7.26 in assay [1].

For `CC[C@]1(NC(=O)/C=C/c2ccco2)C[C@H]2CN(CCc3c([nH]c4ccccc34)[C@@](C(=O)OC)(c3cc4c(cc3OC)N(C)[C@H]3[C@@](O)(C(=O)OC)[C@H](OC(C)=O)[C@]5(CC)C=CCN6CC[C@]43[C@@H]65)C2)C1`, the results for the pIC50 (in the assay on L1210; in the assay on HCT-116; in assay [1]) were 8.89, 8.89 and 7.52, respectively.

Regarding `CC[C@]1(NC(=O)c2ccc3c(c2)CCC3)C[C@H]2CN(CCc3c([nH]c4ccccc34)[C@@](C(=O)OC)(c3cc4c(cc3OC)N(C)[C@H]3[C@@](O)(C(=O)OC)[C@H](OC(C)=O)[C@]5(CC)C=CCN6CC[C@]43[C@@H]65)C2)C1`, the pIC50 was 8.30 in the assay on L1210, 8.25 with HCT-116 and 7.96 in assay [1].

As for `CC[C@]1(NC(=O)c2cccc(Br)c2)C[C@H]2CN(CCc3c([nH]c4ccccc34)[C@@](C(=O)OC)(c3cc4c(cc3OC)N(C)[C@H]3[C@@](O)(C(=O)OC)[C@H](OC(C)=O)[C@]5(CC)C=CCN6CC[C@]43[C@@H]65)C2)C1`, the pIC50 in the assay on L1210 is 8.30; with HCT-116, 8.20; in assay [1] it was 7.22.

As for `CC[C@]1(NS(=O)(=O)c2ccc3ccccc3c2)C[C@H]2CN(CCc3c([nH]c4ccccc34)[C@@](C(=O)OC)(c3cc4c(cc3OC)N(C)[C@H]3[C@@](O)(C(=O)OC)[C@H](OC(C)=O)[C@]5(CC)C=CCN6CC[C@]43[C@@H]65)C2)C1`, the figures for the pIC50 (with L1210; in the assay with HCT-116; in assay [1]) were 7.30, 7.22 and 6.36, respectively.

`CC[C@]1(NC(=O)c2ccc(OCc3ccccc3)cc2)C[C@H]2CN(CCc3c([nH]c4ccccc34)[C@@](C(=O)OC)(c3cc4c(cc3OC)N(C)[C@H]3[C@@](O)(C(=O)OC)[C@H](OC(C)=O)[C@]5(CC)C=CCN6CC[C@]43[C@@H]65)C2)C1`: the pIC50 with L1210 is 8.27; with HCT-116 it was 8.24; in assay [1], 7.26.

With `CC[C@]1(NC(=O)C2CCNCC2)C[C@H]2CN(CCc3c([nH]c4ccccc34)[C@@](C(=O)OC)(c3cc4c(cc3OC)N(C)[C@H]3[C@@](O)(C(=O)OC)[C@H](OC(C)=O)[C@]5(CC)C=CCN6CC[C@]43[C@@H]65)C2)C1`, the figures for the pIC50 (in the assay with L1210; in the assay with HCT-116; in assay [1]) were 5.38, less than 5.00 and less than 5.00, respectively.

For `CC[C@]1(O)C[C@H]2CN(CCc3c([nH]c4ccc(F)cc34)[C@@](C(=O)OC)(c3cc4c(cc3OC)N(C)[C@H]3[C@@](O)(C(=O)OC)[C@H](OC(C)=O)[C@]5(CC)C=CCN6CC[C@]43[C@@H]65)C2)C1`, the figures for the pIC50 (in the assay on L1210; in the assay with HCT-116; in assay [1]) were 9.22, 9.15 and 7.52, respectively.

As for `CC[C@]1(NC(=O)c2ccc3c(c2)CCCCC3)C[C@H]2CN(CCc3c([nH]c4ccccc34)[C@@](C(=O)OC)(c3cc4c(cc3OC)N(C)[C@H]3[C@@](O)(C(=O)OC)[C@H](OC(C)=O)[C@]5(CC)C=CCN6CC[C@]43[C@@H]65)C2)C1`, the pIC50 in the assay on L1210 is 8.21; in the assay with HCT-116, 8.32; in assay [1] it was 7.46.

Consider `CC[C@]1(NC(=O)c2ccc3ccncc3c2)C[C@H]2CN(CCc3c([nH]c4ccccc34)[C@@](C(=O)OC)(c3cc4c(cc3OC)N(C)[C@H]3[C@@](O)(C(=O)OC)[C@H](OC(C)=O)[C@]5(CC)C=CCN6CC[C@]43[C@@H]65)C2)C1`, for which the negative logarithm of the IC50 (pIC50) with L1210 was 9.40; in the assay on HCT-116 it was 9.40; in assay [1], 8.43.

In the case of `CC[C@]1(NC(=O)c2cccc(F)c2)C[C@H]2CN(CCc3c([nH]c4ccccc34)[C@@](C(=O)OC)(c3cc4c(cc3OC)N(C)[C@H]3[C@@](O)(C(=O)OC)[C@H](OC(C)=O)[C@]5(CC)C=CCN6CC[C@]43[C@@H]65)C2)C1`, the pIC50 is 8.24 in the assay with L1210, 8.28 in the assay with HCT-116 and 7.60 in assay [1].

As for `CCCCCC(=O)N[C@@]1(CC)C[C@H]2CN(CCc3c([nH]c4ccccc34)[C@@](C(=O)OC)(c3cc4c(cc3OC)N(C)[C@H]3[C@@](O)(C(=O)OC)[C@H](OC(C)=O)[C@]5(CC)C=CCN6CC[C@]43[C@@H]65)C2)C1`, the figures for the pIC50 (in the assay with L1210; in the assay with HCT-116; in assay [1]) were 7.26, 7.40 and 6.35, respectively.

With `CC[C@]1(NS(=O)(=O)c2cccc3c(N(C)C)cccc23)C[C@H]2CN(CCc3c([nH]c4ccccc34)[C@@](C(=O)OC)(c3cc4c(cc3OC)N(C)[C@H]3[C@@](O)(C(=O)OC)[C@H](OC(C)=O)[C@]5(CC)C=CCN6CC[C@]43[C@@H]65)C2)C1`, the pIC50 with L1210 was 7.52; in the assay with HCT-116, 7.52; in assay [1] it was 7.22.

Regarding `CC[C@]1(NC(=O)c2cccc(N3CCOCC3)c2)C[C@H]2CN(CCc3c([nH]c4ccccc34)[C@@](C(=O)OC)(c3cc4c(cc3OC)N(C)[C@H]3[C@@](O)(C(=O)OC)[C@H](OC(C)=O)[C@]5(CC)C=CCN6CC[C@]43[C@@H]65)C2)C1`, the pIC50 with L1210 was 8.32; in the assay on HCT-116, 8.55; in assay [1] it was 7.52.

Consider `CC[C@]1(NC(=O)c2ccc(Cl)cc2)C[C@H]2CN(CCc3c([nH]c4ccccc34)[C@@](C(=O)OC)(c3cc4c(cc3OC)N(C)[C@H]3[C@@](O)(C(=O)OC)[C@H](OC(C)=O)[C@]5(CC)C=CCN6CC[C@]43[C@@H]65)C2)C1`, for which the values for the pIC50 (in the assay on L1210; with HCT-116; in assay [1]) were 8.51, 8.49 and 7.30, respectively.

Take `CC[C@]1(NC(=O)C2CCSCC2)C[C@H]2CN(CCc3c([nH]c4ccccc34)[C@@](C(=O)OC)(c3cc4c(cc3OC)N(C)[C@H]3[C@@](O)(C(=O)OC)[C@H](OC(C)=O)[C@]5(CC)C=CCN6CC[C@]43[C@@H]65)C2)C1`: the pIC50 with L1210 is 6.34; in the assay on HCT-116, 6.35; in assay [1], 5.28.

For the compound `CC[C@]1(NC(=O)c2ccc3ccoc3c2)C[C@H]2CN(CCc3c([nH]c4ccccc34)[C@@](C(=O)OC)(c3cc4c(cc3OC)N(C)[C@H]3[C@@](O)(C(=O)OC)[C@H](OC(C)=O)[C@]5(CC)C=CCN6CC[C@]43[C@@H]65)C2)C1`, the pIC50 with L1210 is 8.48; with HCT-116 it was 8.66; in assay [1], 8.19.
